According to patent publication US20170029355A1, “LABILE ESTERS OF AGROCHEMICALS FOR CONTROLLED RELEASE AND REDUCTION OF OFF-SITE MOVEMENT” (Monsanto Technology LLC, priority 2011, published 2017):
Where two headings read alike, the source gives them in different places. Each block holds one compound with its values, some of them ahead of it.

What was measured:
[1] = test system: velvetleaf; assay: Greenhouse post-emergent control of velvetleaf by emulsifiable concentrates (Example 37); assay type: in vivo; settings: for pest or weed control at 140 g/ha / pest or weed control at 280 g/ha / pest or weed control at 420 g/ha / pest or weed control at 560 g/ha: Abutilon theophrasti, post-emergence, 504 h; for pest or weed control at 140 g/ha: read-out: % Control of velvetleaf, 140 g/ha; for pest or weed control at 280 g/ha: read-out: % Control of velvetleaf, 280 g/ha; for pest or weed control at 420 g/ha: read-out: % Control of velvetleaf, 420 g/ha; for pest or weed control at 560 g/ha: read-out: % Control of velvetleaf, 560 g/ha
Method: (§1) The efficacy of some photo-labile ester formulations from Example 28 for post-emergent control of velvetleaf was tested in the greenhouse. All formulations were tested at rates of 140, 280, 420, and 560 g dicamba equivalent per hectare rates and compared to the diglycolamine salt of dicamba (CLARITY®) at the same rates and untreated control plants. The velvetleaf plants were 10-15 cm in height at the time of spraying. Percent control was evaluated three weeks after treatment.
The methodology of Example 29 was used to evaluate the efficacy of several esters of dicamba which convert to dicamba by hydrolysis for post-emergent control of velvetleaf as emulsifiable concentrate formulations.

[2] = In vitro photo-release and hydrolytic release of dicamba in an aqueous medium (Example 36); assay type: physicochemical; settings: 0.01 mM (0.005 mM for diesters); for Conversion to Dicamba, Dark, Day 0 / Conversion to Dicamba, Dark, Day 1 / Conversion to Dicamba, Dark, Day 2 / Conversion to Dicamba, Dark, Day 3 / Conversion to Dicamba, Dark, Day 4 / Conversion to Dicamba, Dark, Day 7 / Conversion to Dicamba, Dark, Day 14 / Conversion to dicamba, Dark, Day 10 / Conversion to Dicamba, Dark, Day 21 / Conversion to Dicamba, Dark, Day 28: amber (dark) bottle; for Conversion to Dicamba, Light, Day 0 / Conversion to Dicamba, Light, Day 1 / Conversion to Dicamba, Light, Day 2 / Conversion to Dicamba, Light, Day 3 / Conversion to Dicamba, Light, Day 4 / Conversion to Dicamba, Light, Day 7 / Conversion to Dicamba, Light, Day 14 / Conversion to dicamba, Light, Day 10 / Conversion to Dicamba, Light, Day 21 / Conversion to Dicamba, Light, Day 28: quartz tube
Method: This Example describes the determination of photo-lability and hydrolytic lability of dicamba esters in an aqueous medium. 1 mM solutions of the esters were prepared in acetonitrile (or […] solutions of dicamba diesters). The solutions were then diluted with deionized water to a concentration of 0.01 mM (or 0.005 mM for diesters). The solutions were then transferred to quartz tubes and amber bottles and held in a growth chamber by the procedure of Example 26. A 14-hour day was generally used at a constant temperature of 35° C. Hydrolytic activity was assessed by measuring the increase in dicamba concentration after day zero in the amber (dark) bottles. […] Photolysis manifested itself as increased conversion in the quartz tubes compared to the dark control.
This Example provides the results of an aqueous lability test following the protocol of Example 35 for several dicamba esters which convert to dicamba primarily by hydrolysis. As shown by the results in the table below, conversion of the dark controls generally equaled or exceeded conversion in the photolysis solutions.

[3] = test system: broadleaf weeds; assay: Control of broadleaf weeds by ester concentrates (statements of the description); assay type: in vivo; settings: emulsifiable and suspension concentrates; Sesbania macrocarpa, morning glory, velvetleaf, Palmer amaranth, fat hen, sicklepod
[4] = In vitro dicamba photo-release from photo-labile dicamba esters, tetrahydrofuran solvent (Example 26); assay type: physicochemical; settings: THF, 0.1 mM ester
Method: (§2) This Example describes in vitro testing of dicamba photo-release by homogeneous solutions of photo-labile dicamba esters. The esters were dissolved in tetrahydrofuran (THF). Ester concentration was 0.1 mM. 25 ml of the solution was transferred to 22 mm tubes fabricated from graded seal quartz tubing with a 19/22 tapered seal at the top, which was closed with a tapered glass plug and secured with a plastic ring clamp. The solution was entirely below the quartz-to-glass transition, ensuring that the entire volume was exposed to the full spectrum.
(§3) The sealed tubes were placed in a Growth Chamber where they were exposed to simulated sunlight for 14 hours per day at 35° C. Dicamba concentrations in the solution were measured during the course of the photolysis.
(§4) A sample of the initial solution was reserved in a glass vial away from the light source and analyzed at the conclusion of the study, providing a measurement of the amount of dicamba present without illumination of the photolysis solution (the “dark control”).

[5] = In vitro dicamba photo-release from photo-labile dicamba esters, acetonitrile/10% water solvent (Example 27); assay type: physicochemical; settings: acetonitrile containing 10% water
Method: as §2, §3, §4
This Example is another photolysis of photo-labile dicamba esters, but using acetonitrile containing 10% water by weight as the solvent. The experimental protocol is otherwise the same as in Example 18.

[6] = test system: velvetleaf; assay: Greenhouse post-emergent control of velvetleaf by emulsifiable concentrates (Example 29); assay type: in vivo; settings: three weeks after treatment
Method: as §1

Conversion to Dicamba, Dark, Day 0 [2]: 27%
Conversion to Dicamba, Dark, Day 1 [2]: 81%
Conversion to Dicamba, Dark, Day 2 [2]: 83%
Conversion to Dicamba, Dark, Day 3 [2]: 83%
Conversion to Dicamba, Dark, Day 4 [2]: 80%
Conversion to Dicamba, Dark, Day 7 [2]: 84%
Conversion to Dicamba, Dark, Day 14 [2]: 85%
Conversion to Dicamba, Light, Day 0 [2]: 27%
Conversion to Dicamba, Light, Day 1 [2]: 75%
Conversion to Dicamba, Light, Day 2 [2]: 74%
Conversion to Dicamba, Light, Day 3 [2]: 75%
Conversion to Dicamba, Light, Day 4 [2]: 74%
Conversion to Dicamba, Light, Day 7 [2]: 76%
Conversion to Dicamba, Light, Day 14 [2]: 77%
Structure (SMILES): COc1ccc(COC(=O)c2c(Cl)ccc(Cl)c2OC)cc1 [Ester 29a, 4-methoxybenzyl ester of dicamba]
pest or weed control at 140 g/ha ([1]; greenhouse, 140 g/ha, Example 37): 30%
pest or weed control at 280 g/ha ([1]; greenhouse, 280 g/ha, Example 37): 55%
pest or weed control at 420 g/ha ([1]; greenhouse, 420 g/ha, Example 37): 74.2%
pest or weed control at 560 g/ha ([1]; greenhouse, 560 g/ha, Example 37): 81.7%

Structure (SMILES): COc1c(Cl)ccc(Cl)c1C(=O)Oc1ccc(=O)n(CCC=O)n1 [Ester 33a]
pest or weed control at 140 g/ha [1]: 15.8%
pest or weed control at 280 g/ha [1]: 27.5%
pest or weed control at 420 g/ha [1]: 22.5%
pest or weed control at 560 g/ha [1]: 30.8%
post-emergent efficacy on velvetleaf compared with the salt, in words ([1]; greenhouse, emulsifiable concentrates): reduced post-emergent efficacy
Conversion to Dicamba, Dark, Day 0 [2]: 13%
Conversion to Dicamba, Dark, Day 1 [2]: 15%
Conversion to Dicamba, Dark, Day 2 [2]: 18%
Conversion to Dicamba, Dark, Day 3 [2]: 18%
Conversion to Dicamba, Dark, Day 4 [2]: 22%
Conversion to Dicamba, Dark, Day 7 [2]: 21%
Conversion to dicamba, Dark, Day 10 [2]: 28%
Conversion to Dicamba, Dark, Day 14 [2]: 37%
Conversion to Dicamba, Dark, Day 21 [2]: 50%
Conversion to Dicamba, Dark, Day 28 [2]: 55%
Conversion to Dicamba, Light, Day 0 [2]: 13%
Conversion to Dicamba, Light, Day 1 [2]: 18%
Conversion to Dicamba, Light, Day 2 [2]: 20%
Conversion to Dicamba, Light, Day 3 [2]: 19%
Conversion to Dicamba, Light, Day 4 [2]: 22%
Conversion to Dicamba, Light, Day 7 [2]: 23%
Conversion to dicamba, Light, Day 10 [2]: 30%
Conversion to Dicamba, Light, Day 14 [2]: 42%
Conversion to Dicamba, Light, Day 21 [2]: 53%
Conversion to Dicamba, Light, Day 28 [2]: 57%

Structure (SMILES): CCOC(=O)CCn1nc(OC(=O)c2c(Cl)ccc(Cl)c2OC)ccc1=O [Ester 35a]
pest or weed control at 140 g/ha [1]: 35.8%
pest or weed control at 280 g/ha [1]: 60%
pest or weed control at 420 g/ha [1]: 85%
pest or weed control at 560 g/ha [1]: 87.5%
Conversion to Dicamba, Dark, Day 0 [2]: 19%
Conversion to Dicamba, Dark, Day 1 [2]: 66%
Conversion to Dicamba, Dark, Day 2 [2]: 69%
Conversion to Dicamba, Dark, Day 3 [2]: 68%
Conversion to Dicamba, Dark, Day 4 [2]: 71%
Conversion to Dicamba, Dark, Day 7 [2]: 74%
Conversion to Dicamba, Dark, Day 14 [2]: 70%
Conversion to Dicamba, Dark, Day 21 [2]: 70%
Conversion to Dicamba, Dark, Day 28 [2]: 74%
Conversion to Dicamba, Light, Day 0 [2]: 19%
Conversion to Dicamba, Light, Day 1 [2]: 57%
Conversion to Dicamba, Light, Day 2 [2]: 58%
Conversion to Dicamba, Light, Day 3 [2]: 58%
Conversion to Dicamba, Light, Day 4 [2]: 62%
Conversion to Dicamba, Light, Day 7 [2]: 60%
Conversion to Dicamba, Light, Day 14 [2]: 64%
Conversion to Dicamba, Light, Day 21 [2]: 63%
Conversion to Dicamba, Light, Day 28 [2]: 65%

Structure (SMILES): CCCCOc1ccc(C(=O)COC(=O)c2c(Cl)ccc(Cl)c2OC)cc1 [Ester 10, p-n-Butoxyphenacylmethyl Ester of Dicamba]
control of a number of broadleaf weeds in field testing, in words [3]: proven effective
Dark Control % dicamba ([4]; initial solution kept away from the light source, analyzed at conclusion of study): 8%
Conversion to dicamba, 1 day ([4]; simulated sunlight 14 hours per day, 35° C., 1 day): 16%
Conversion to dicamba, 2 days ([4]; simulated sunlight 14 hours per day, 35° C., 2 days): 15%
Conversion to dicamba, 3 days ([4]; simulated sunlight 14 hours per day, 35° C., 3 days): 16%
Conversion to dicamba, 5 days ([4]; simulated sunlight 14 hours per day, 35° C., 5 days): 19%
Conversion to dicamba, 7 days ([4]; simulated sunlight 14 hours per day, 35° C., 7 days): 20%
Conversion to dicamba, 9 days ([4]; simulated sunlight 14 hours per day, 35° C., 9 days): 29%
Conversion to dicamba, 12 days ([4]; simulated sunlight 14 hours per day, 35° C., 12 days): 35%
Conversion to dicamba, 15 days ([4]; simulated sunlight 14 hours per day, 35° C., 15 days): 35%
Dark Control % dicamba ([5]; no illumination): 8%
Conversion to dicamba, 1 day ([5]; simulated sunlight, 1 day): 17%
Conversion to dicamba, 2 days ([5]; simulated sunlight, 2 days): 19%
Conversion to dicamba, 3 days ([5]; simulated sunlight, 3 days): 20%
Conversion to dicamba, 5 days ([5]; simulated sunlight, 5 days): 24%
Conversion to dicamba, 7 days ([5]; simulated sunlight, 7 days): 28%
Conversion to dicamba, 11 days ([5]; simulated sunlight, 11 days): 32%
Conversion to dicamba, 13 days ([5]; simulated sunlight, 13 days): 31%
Conversion to dicamba, 15 days ([5]; simulated sunlight, 15 days): 32%
Conversion to dicamba, 19 days ([5]; simulated sunlight, 19 days): 33%
% Control of velvetleaf, 140 g/ha ([6]; 140 g dicamba equivalent per hectare): 23%
% Control of velvetleaf, 280 g/ha ([6]; 280 g dicamba equivalent per hectare): 33%
% Control of velvetleaf, 420 g/ha ([6]; 420 g dicamba equivalent per hectare): 28%
% Control of velvetleaf, 560 g/ha ([6]; 560 g dicamba equivalent per hectare): 33%

Conversion to Dicamba, Dark, Day 0 [2]: 16%
Conversion to Dicamba, Dark, Day 1 [2]: 37%
Conversion to Dicamba, Dark, Day 2 [2]: 43%
Conversion to Dicamba, Dark, Day 3 [2]: 43%
Conversion to Dicamba, Dark, Day 4 [2]: 44%
Conversion to Dicamba, Dark, Day 7 [2]: 49%
Conversion to dicamba, Dark, Day 10 [2]: 50%
Conversion to Dicamba, Dark, Day 14 [2]: 51%
Conversion to Dicamba, Dark, Day 21 [2]: 49%
Conversion to Dicamba, Dark, Day 28 [2]: 50%
Conversion to Dicamba, Light, Day 0 [2]: 16%
Conversion to Dicamba, Light, Day 1 [2]: 45%
Conversion to Dicamba, Light, Day 2 [2]: 48%
Conversion to Dicamba, Light, Day 3 [2]: 46%
Conversion to Dicamba, Light, Day 4 [2]: 45%
Conversion to Dicamba, Light, Day 7 [2]: 46%
Conversion to dicamba, Light, Day 10 [2]: 50%
Conversion to Dicamba, Light, Day 14 [2]: 51%
Conversion to Dicamba, Light, Day 21 [2]: 53%
Conversion to Dicamba, Light, Day 28 [2]: 53%
Structure (SMILES): C=C(C(=O)OCC)C(OC(=O)c1c(Cl)ccc(Cl)c1OC)c1ccccc1[N+](=O)[O-] (stereo not shown) [Ester 31a]
